Reference: patent publication US20240317708A1, “INHIBITORS OF TRANSGLUTAMINASES” (ZEDIRA GMBH, priority 2021, published 2024)

Columns and labels:
[1] = molecular target: T1, recombinant human transglutaminase 2 (Homo sapiens, UniProt P21980); assay: Transglutaminase assay (dansylcadaverine incorporation into dimethylcasein, DCC-assay); type: biochemical; details: recombinant human TG2 10 nM, dansylcadaverine/dimethylcasein, 37° C.
T1 construct: purchased Zedira T022
T1 sequence (P21980 1-687): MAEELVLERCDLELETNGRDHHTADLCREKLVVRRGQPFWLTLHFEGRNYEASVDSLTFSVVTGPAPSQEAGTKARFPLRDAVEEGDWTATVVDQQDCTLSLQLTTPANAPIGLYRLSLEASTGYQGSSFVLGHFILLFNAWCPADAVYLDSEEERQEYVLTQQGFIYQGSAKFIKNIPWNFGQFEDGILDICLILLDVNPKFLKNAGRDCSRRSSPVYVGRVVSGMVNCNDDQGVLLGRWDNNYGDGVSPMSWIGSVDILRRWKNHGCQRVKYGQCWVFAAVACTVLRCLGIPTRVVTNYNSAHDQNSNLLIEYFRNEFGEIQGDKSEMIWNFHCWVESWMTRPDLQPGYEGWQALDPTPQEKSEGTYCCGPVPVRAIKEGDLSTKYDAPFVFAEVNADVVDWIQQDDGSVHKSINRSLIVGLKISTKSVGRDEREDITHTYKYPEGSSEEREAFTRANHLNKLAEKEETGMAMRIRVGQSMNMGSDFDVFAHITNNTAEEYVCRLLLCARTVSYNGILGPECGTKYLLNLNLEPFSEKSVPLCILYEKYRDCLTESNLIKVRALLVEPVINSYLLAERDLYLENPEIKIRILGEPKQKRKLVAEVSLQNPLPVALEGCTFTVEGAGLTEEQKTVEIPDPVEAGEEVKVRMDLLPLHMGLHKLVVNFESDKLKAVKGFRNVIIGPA
Outline: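 IC50 derived from fluorescence slope between 20 and 30 min (λex 330 nm, λem 500 nm, 37 °C), expressed relative to a 2% DMSO control. Reaction: 10 nM recombinant human TG2, 4 μM dimethylcasein, 16.7 μM dansylcadaverine, 10 mM CaCl2 and glutathione, pH 8.0.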

[2] = Log D shake flask method (octanol / PBS pH 7.4, HPLC); type: physicochemical; details: octanol/phosphate-buffered saline (PBS); octanol / PBS pH 7.4, shake flask
Experimental: In order to classify the inventive compounds according to their lipophilicity, Log D values (distribution coefficient) were determined by means of the well-established shake flask method, measuring the partition of a compound between an octanol and phosphate-buffered saline (PBS, pH 7.4) by HPLC.

[3] = Caco-2 permeability assay (CacoReady kit); type: in vitro ADME; details: human
Outline: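 Read-out is the permeability coefficient Papp, obtained from transport across a Caco-2 barrier prepared from a ready-to-use kit following the manufacturer's instructions.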

An IC50 [1] of less than 25 nM, a logD [2] of 3 to 5 and a Papp [3] of 1 to 10 ×10⁻⁶ cm/s were found for `COC(=O)/C=C/CC[C@H](NC(=O)c1cc(Cl)sc1Cl)C(=O)Nc1cccn(CC(=O)N[C@@H]2C[C@@H]3CC[C@H]2C3)c1=O` [III-126, (S,E)-methyl 7-(1-(2-((1S,2R,4R)-bicyclo[2.2.1]heptan-2-ylamino)-2-oxoethyl)-2-oxo-1,2-dihydropyridin-3-ylamino)-6-(2,5-dichlorothiophene-3-carboxamido)-7-oxohept-2-enoate] in this work.

An IC50 [1] of 25 to 250 nM, a logD [2] of less than 1 and a Papp [3] of less than 1 ×10⁻⁶ cm/s were found for `COC(=O)/C=C/CC[C@H](NC(=O)c1cnsn1)C(=O)Nc1cccn(CC(=O)NC23CC(C2)C3)c1=O` [III-173, (S,E)-methyl 7-(1-(2-(bicyclo[1.1.1]pentan-1-ylamino)-2-oxoethyl)-2-oxo-1,2-dihydropyridin-3-ylamino)-7-oxo-6-(1,2,5-thiadiazole-3-carboxamido)hept-2-enoate] in this work.

An IC50 [1] of 25 to 250 nM, a logD [2] of 1 to 3 and a Papp [3] of less than 1 ×10⁻⁶ cm/s were found for `COC(=O)/C=C/CC[C@H](NC(=O)c1nc[nH]n1)C(=O)Nc1cccn(CC(=O)NC2C3CC4CC(C3)CC2C4)c1=O` (stereo partly drawn) [III-104, (S,E)-methyl 7-(1-(2-(2-adamantylamino)-2-oxoethyl)-2-oxo-1,2-dihydropyridin-3-ylamino)-7-oxo-6-(1H-1,2,4-triazole-3-carboxamido)hept-2-enoate] in this work.

An IC50 [1] of 25 to 250 nM, a logD [2] of 3 to 5 and a Papp [3] of less than 1 ×10⁻⁶ cm/s were found for `COC(=O)/C=C/CC[C@H](NC(=O)[C@@H]1CCCNC1)C(=O)Nc1cccn(CC(=O)NC2C3CC4CC(C3)CC2C4)c1=O` (stereo partly drawn) [III-30, (S,E)-methyl 7-(1-(2-(2-adamantylamino)-2-oxoethyl)-2-oxo-1,2-dihydropyridin-3-ylamino)-7-oxo-6-((R)-piperidine-3-carboxamido)hept-2-enoate] in this work.

An IC50 [1] of 250 to 1500 nM, a logD [2] of 1 to 3 and a Papp [3] of less than 1 ×10⁻⁶ cm/s were found for `COC(=O)/C=C/CC[C@H](NC(=O)c1cc2ccc(N(C)C)cc2o1)C(=O)Nc1cccn(CC(=O)NC23CC(C2)C3)c1=O` [III-161, (S,E)-methyl 7-(1-(2-(bicyclo[1.1.1]pentan-1-ylamino)-2-oxoethyl)-2-oxo-1,2-dihydropyridin-3-ylamino)-6-(6-(dimethylamino)benzofuran-2-carboxamido)-7-oxohept-2-enoate] in this work.

An IC50 [1] of 250 to 1500 nM, a logD [2] of 1 to 3 and a Papp [3] of less than 1 ×10⁻⁶ cm/s were found for `O=C(/C=C/CC[C@H](NC(=O)c1ccc2c(c1)NCCC2)C(=O)Nc1cccn(CC(=O)NC23CC(C2)C3)c1=O)NC1CCCCC1` [III-149, (S,E)-N7-(1-(2-(bicyclo[1.1.1]pentan-1-ylamino)-2-oxoethyl)-2-oxo-1,2-dihydropyridin-3-yl)-N1-cyclohexyl-6-(1,2,3,4-tetrahydroquinoline-7-carboxamido)hept-2-enediamide] in this work.

An IC50 [1] of less than 25 nM, a logD [2] of 1 to 3 and a Papp [3] of less than 1 ×10⁻⁶ cm/s were found for `COC(=O)/C=C/CC[C@H](NC(=O)c1ccnn1C)C(=O)Nc1cccn(CC(=O)N[C@@H]2C[C@@H]3CC[C@H]2C3)c1=O` [III-117, (S,E)-methyl 7-(1-(2-((1S,2R,4R)-bicyclo[2.2.1]heptan-2-ylamino)-2-oxoethyl)-2-oxo-1,2-dihydropyridin-3-ylamino)-6-(1-methyl-1H-pyrazole-5-carboxamido)-7-oxohept-2-enoate] in this work.

An IC50 [1] of less than 25 nM, a logD [2] of 3 to 5 and a Papp [3] of 1 to 10 ×10⁻⁶ cm/s were found for `COC(=O)/C=C/CC[C@H](NC(=O)c1cncn1C)C(=O)Nc1cccn(CC(=O)NC23CC4(C)CC(C)(CC(C)(C4)C2)C3)c1=O` [III-91, (S,E)-methyl 7-(1-(2-(3,5,7-trimethyl-1-adamantylamino)-2-oxoethyl)-2-oxo-1,2-dihydropyridin-3-ylamino)-6-(1-methyl-1H-imidazole-5-carboxamido)-7-oxohept-2-enoate] in this work.

An IC50 [1] of less than 25 nM, a logD [2] of 1 to 3 and a Papp [3] of less than 1 ×10⁻⁶ cm/s were found for `COC(=O)/C=C/CC[C@H](NC(=O)c1cncn1C)C(=O)Nc1cccn(CC(=O)NC2C3CC4CC(C3)CC2C4)c1=O` (stereo partly drawn) [III-1, (S,E)-methyl 7-(1-(2-(2-adamantylamino)-2-oxoethyl)-2-oxo-1,2-dihydropyridin-3-ylamino)-6-(1-methyl-1H-imidazole-5-carboxamido)-7-oxohept-2-enoate] in this work.

An IC50 [1] of 250 to 1500 nM, a logD [2] of 3 to 5 and a Papp [3] of less than 1 ×10⁻⁶ cm/s were found for `COC(=O)/C=C/CC[C@H](NC(=O)c1ncc(OC)o1)C(=O)Nc1cccn(CCC(=O)NC2C3CC4CC(C3)CC2C4)c1=O` (stereo partly drawn) [III-133, (S,E)-methyl 7-(1-(3-(2-adamantylamino)-3-oxopropyl)-2-oxo-1,2-dihydropyridin-3-ylamino)-6-(5-methoxyoxazole-2-carboxamido)-7-oxohept-2-enoate] in this work.

An IC50 [1] of less than 25 nM, a logD [2] of 3 to 5 and a Papp [3] of 1 to 10 ×10⁻⁶ cm/s were found for `COC(=O)/C=C/CC[C@H](NC(=O)c1oc2ccccc2c1C)C(=O)Nc1cccn(CC(=O)N[C@@H]2C[C@@H]3C[C@H]([C@H]2C)C3(C)C)c1=O` [III-69, (S,E)-methyl 6-(3-methylbenzofuran-2-carboxamido)-7-oxo-7-(2-oxo-1-(2-oxo-2-((1R,2R,3R,5S)-2,6,6-trimethylbicyclo[3.1.1]heptan-3-ylamino)ethyl)-1,2-dihydropyridin-3-ylamino)hept-2-enoate] in this work.

An IC50 [1] of less than 25 nM, a logD [2] of 3 to 5 and a Papp [3] of 1 to 10 ×10⁻⁶ cm/s were found for `COC(=O)/C=C/CC[C@H](NC(=O)c1cc(Cl)sc1Cl)C(=O)Nc1cccn(CC(=O)N[C@H]2C[C@H]3CC[C@]2(C)C3(C)C)c1=O` [III-128, (S,E)-methyl 6-(2,5-dichlorothiophene-3-carboxamido)-7-oxo-7-(2-oxo-1-(2-oxo-2-((1R,2S,4R)-1,7,7-trimethylbicyclo[2.2.1]heptan-2-ylamino)ethyl)-1,2-dihydropyridin-3-ylamino)hept-2-enoate] in this work.

An IC50 [1] of less than 25 nM, a logD [2] of 1 to 3 and a Papp [3] of less than 1 ×10⁻⁶ cm/s were found for `COC(=O)/C=C/CC[C@H](NC(=O)c1snnc1C)C(=O)Nc1cccn(CC(=O)N[C@H]2C[C@H]3CC[C@]2(C)C3(C)C)c1=O` [III-120, (S,E)-methyl 6-(4-methyl-1,2,3-thiadiazole-5-carboxamido)-7-oxo-7-(2-oxo-1-(2-oxo-2-((1R,2S,4R)-1,7,7-trimethylbicyclo[2.2.1]heptan-2-ylamino)ethyl)-1,2-dihydropyridin-3-ylamino)hept-2-enoate] in this work.

An IC50 [1] of less than 25 nM, a logD [2] of 1 to 3 and a Papp [3] of 1 to 10 ×10⁻⁶ cm/s were found for `COC(=O)/C=C/CC[C@H](NC(=O)c1cnnn1C)C(=O)Nc1cccn(CC(=O)NC2C3CC4CC(C3)CC2C4)c1=O` (stereo partly drawn) [III-22, (S,E)-methyl 7-(1-(2-(2-adamantylamino)-2-oxoethyl)-2-oxo-1,2-dihydropyridin-3-ylamino)-6-(1-methyl-1H-1,2,3-triazole-5-carboxamido)-7-oxohept-2-enoate] in this work.

An IC50 [1] of 25 to 250 nM, a logD [2] of less than 1 and a Papp [3] of less than 1 ×10⁻⁶ cm/s were found for `O=C(/C=C/CC[C@H](NC(=O)c1cc2ccccc2nn1)C(=O)Nc1cccn(CC(=O)NC23CC(C2)C3)c1=O)NC1CC1` [III-145, (S,E)-N7-(1-(2-(bicyclo[1.1.1]pentan-1-ylamino)-2-oxoethyl)-2-oxo-1,2-dihydropyridin-3-yl)-6-(cinnoline-3-carboxamido)-N1-cyclopropylhept-2-enediamide] in this work.

An IC50 [1] of 250 to 1500 nM, a logD [2] of less than 1 and a Papp [3] of less than 1 ×10⁻⁶ cm/s were found for `CCN(CC)C(=O)/C=C/CC[C@H](NC(=O)c1coc(C(C)=O)n1)C(=O)Nc1cccn(CC(=O)NC23CC(C2)C3)c1=O` [III-138, (S,E)-6-(2-acetyloxazole-4-carboxamido)-N7-(1-(2-(bicyclo[1.1.1]pentan-1-ylamino)-2-oxoethyl)-2-oxo-1,2-dihydropyridin-3-yl)-N1,N1-diethylhept-2-enediamide] in this work.

An IC50 [1] of less than 25 nM, a logD [2] of 3 to 5 and a Papp [3] of 1 to 10 ×10⁻⁶ cm/s were found for `COC(=O)/C=C/CC[C@H](NC(=O)c1oc2ccccc2c1C)C(=O)Nc1cccn(CC(=O)NC2C3CC4CC2CC(Br)(C4)C3)c1=O` (stereo partly drawn) [III-41, (S,E)-methyl 7-(1-(2-(5-bromoadamantan-2-amino)-2-oxoethyl)-2-oxo-1,2-dihydropyridin-3-ylamino)-6-(3-methylbenzofuran-2-carboxamido)-7-oxohept-2-enoate] in this work.

An IC50 [1] of 250 to 1500 nM, a logD [2] of less than 1 and a Papp [3] of 1 to 10 ×10⁻⁶ cm/s were found for `Cc1cn2c(C(=O)N[C@@H](CC/C=C/C(=O)NC(C)C)C(=O)Nc3cccn(CC(=O)NC45CC(C4)C5)c3=O)csc2n1` [III-141, (S,E)-N7-(1-(2-(bicyclo[1.1.1]pentan-1-ylamino)-2-oxoethyl)-2-oxo-1,2-dihydropyridin-3-yl)-N1-isopropyl-6-(6-methylimidazo[2,1-b]thiazole-3-carboxamido)hept-2-enediamide] in this work.
